Experimental data reported in patent publication US20110105457A1, “HETEROCYCLIC COMPOUND HAVING INHIBITORY ACTIVITY ON PI3K” (SHIONOGI & CO., LTD., priority 2008, published 2011).
pIC50, pKi: −log10 of the molar value.

Columns and labels:
CYP2D6 = target: T1, CYP2D6 (Homo sapiens, UniProt P10635); assay: CYP inhibition test, pooled human liver microsome, O-demethylation of dextromethorphan; type: in vitro ADME
T1 construct: Using a pooled human liver microsome commercially available; from tissue; host or cells: pooled human liver microsomes
Experimental: (§1) Using a pooled human liver microsome commercially available, and selecting as indexes O-de-ethylation of 7-ethoxyresorufin (CYP1A2), methyl-hydroxylation of tolbutamide (CYP2C9), 4′-hydroxylation of mephenyloin (CYP2C19), O-demethylation of dextromethorphan (CYP2D6), and hydroxylation of terfenadine (CYP3A4), which are typical substrate metabolic reactions of human main CYP5 molecular species (CYP1A2, 2C9, 2C19, 2D6, and 3A4), it was evaluated in what degree the amount of each metabolite produced was inhibited by a test compound.
(§2) The reaction condition is as follows: substrate, 0.5 μmol/L of ethoxyresorufin (CYP1A2), 100 μmol/L of tolbutamide (CYP2C9), 50 μmol/L of S-mephenyloin (CYP2C19), 5 μmol/L of dextromethorphan (CYP2D6), and 1 μmol/L of terfenadine (CYP3A4); reaction time, 15 minutes; reaction temperature, 37 degrees Celsius; enzyme, pooled human liver microsome 0.2 mg protein/mL; test drug concentration, 1, 5, 10, and 20 μmol/L (4 points).
(§3) To a 96-well plate was added five kinds of substrates, a human liver microsome, and a test drug in 50 mM Hepes buffer solution as a reaction solution in the aforementioned constitution. A coenzyme NADPH was added to start a metabolic reaction, which is an index. After reacting at 37 degrees Celsius for 15 minutes, a solution of methanol/acetonitrile (1/1 (v/v)) was added to quench the reaction. After centrifugation at 3000 rpm for 15 minutes, resorufine (CYP1A2 metabolite) in the supernatant was quantitated with a fluorescence multilabel counter, and hydroxylated tolbutamide (CYP2C9 metabolite), 4′-hydroxylated mephenyloin (CYP2C19 metabolite), […] (CYP2D6 metabolite), terfenadine in alcohol form (CYP3A4 metabolite) were quantitated with LC/MS/MS.
(§4) The case that only DMSO, a solvent which dissolved a drug, was added to a reaction system was defined as a control (100%). The remaining activity (%) at each concentration in cases that a test drug solution was added was calculated, and then IC50 was calculated with a concentration and an inhibition ratio by an inverse estimation using a logistic model.

CYP2C9 = target: T2, CYP2C9 (Homo sapiens, UniProt P11712); assay: CYP inhibition test, pooled human liver microsome, methyl-hydroxylation of tolbutamide; type: in vitro ADME
T2 construct: Using a pooled human liver microsome commercially available; from tissue; host or cells: pooled human liver microsomes
Experimental: as §1, §2, §3, §4

PI-3 kinase γ [1] = target: T3, PI-3 kinase γ (Homo sapiens, UniProt P48736); assay: PI3Kγ inhibitory activity, PI3-kinase HTRF assay (Millipore); type: biochemical; details: 0.5 h; compound 50 μM; read-out: Inhibition ratio % (50 μM)
In short: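 HTRF assay: PI3Kγ preincubated 10 min with compound and PIP2 substrate in MgCl2/DTT buffer, then reaction started with ATP and run 30 min at room temperature before EDTA/biotin-PIP3 quench. Read after 18 h with Eu anti-GST/GST-PH domain/APC-streptavidin as 665/620 nm ratio; inhibition relative to no-compound (100%) and no-enzyme (0%) wells.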

CYP3A4 = target: T4, CYP3A4 (Homo sapiens, UniProt P08684); assay: CYP inhibition test, pooled human liver microsome, hydroxylation of terfenadine; type: in vitro ADME
T4 construct: Using a pooled human liver microsome commercially available; from tissue; host or cells: pooled human liver microsomes
Experimental: as §1, §2, §3, §4

CYP1A2 = target: T5, CYP1A2 (Homo sapiens, UniProt P05177); assay: CYP inhibition test, pooled human liver microsome, O-de-ethylation of 7-ethoxyresorufin; type: in vitro ADME
T5 construct: Using a pooled human liver microsome commercially available; from tissue; host or cells: pooled human liver microsomes
T5 sequence (P05177 1-516): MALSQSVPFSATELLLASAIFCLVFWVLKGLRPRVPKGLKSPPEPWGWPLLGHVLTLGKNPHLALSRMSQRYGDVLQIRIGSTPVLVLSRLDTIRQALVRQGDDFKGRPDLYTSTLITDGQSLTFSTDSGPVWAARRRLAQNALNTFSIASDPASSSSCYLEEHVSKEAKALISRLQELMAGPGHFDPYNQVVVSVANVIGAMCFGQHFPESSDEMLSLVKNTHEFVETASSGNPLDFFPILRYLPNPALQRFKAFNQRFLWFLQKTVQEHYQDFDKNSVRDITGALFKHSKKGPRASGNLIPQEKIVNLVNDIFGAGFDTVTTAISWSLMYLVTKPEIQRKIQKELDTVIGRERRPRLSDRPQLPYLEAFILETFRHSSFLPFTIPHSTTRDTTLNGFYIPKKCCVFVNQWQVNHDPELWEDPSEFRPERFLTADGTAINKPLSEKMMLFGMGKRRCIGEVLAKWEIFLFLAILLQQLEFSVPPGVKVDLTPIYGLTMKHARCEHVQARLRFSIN
Experimental: as §1, §2, §3, §4

CYP2C19 = target: T6, CYP2C19 (Homo sapiens, UniProt P33261); assay: CYP inhibition test, pooled human liver microsome, 4′-hydroxylation of mephenyloin; type: in vitro ADME; details: S-mephenyloin
T6 construct: Using a pooled human liver microsome commercially available; from tissue; host or cells: pooled human liver microsomes
Experimental: as §1, §2, §3, §4

[2] = tested on: AKT phosphorylation (Ser473) in THP-1 cells; assay: AKT phosphorylation inhibitory activity in MCP-1 stimulated THP-1 cells (ELISA); type: cell-based, human; details: MCP-1 stimulation, compound concentration not given
Experimental: (1) The AKT phosphorylation inhibitory activity of a compound was evaluated according to the following procedure. (2) Human monocyte-like cell line THP-1 was washed with RPMI-1640 media, incubated in the presence of 5% CO2 at 37 degrees Celsius for 3 hours, washed with Hank's balanced salt solution (HBSS), adjusted to a cell concentration of 6.6×10^6/mL, and then used in an experiment. (3) 30 μL of the cell suspension and 60 μL of each compound solution comprising 0.2% DMSO/HBSS are mixed, and then preincubated at 37 degrees Celsius for 5 minutes. 30 μL of HBSS comprising 4 μg/mL of MCP-1 was added thereto, and then incubated for 30 seconds at 37 degrees Celsius. (4) 30 μL of 20 mM Tris-HCl (pH 7.5)/150 mM NaCl/1 mM Na2EDTA/1 mM EGTA/1% Triton/2.5 mM sodium pyrophosphate/1 mM β-glycerophosphate/1 mM Na3VO4/1 μg/ml leupeptin/50 nM APMSF was added thereto to dissolve cells. (5) The amount of AKT phosphorylation in a cell solution was measured by ELISA method. (6) To a micro well plate to which anti-phospho-Akt (Ser473) antibody (clone 193H12, derived from a rabbit) was solid-phased was added 100 μL of a prepared cell solution, incubated for 2 hours at 37 degrees Celsius, and then washed four times with Phosphate Buffered Saline/0.05% Tween-20. (7) An anti-AKT1 antibody (clone 2H10, derived from a mouse) was added thereto, incubated for 1 hour at 37 degrees Celsius, washed similarly, and then reacted with an HRP-labeled anti-mouse IgG antibody. (8) After incubating at 37 degrees Celsius for 30 minutes and then washing similarly, 100 μL of TMB (3,3′,5,5″-tetramethylbenzidine) was added thereto, followed by reacting at room temperature for 30 minutes. (9) 100 μL of 1 mol/L sulfuric acid was added to quench the color reaction, and then the absorbance at 450 nm was measured. (10) A series of diluted cell solutions of a positive control (a sample in the absence of a compound) were used as a calibration curve, the amount of AKT phosphorylation in a sample in the absence of MCP-1 was defined as 0% activity to calculate an inhibition ratio.

Solubility test = type: physicochemical; details: 25 °C, fassgf or other biorelevant, kinetic from dmso stock, artificial intestinal juice pH 6.8, 1% DMSO, 25 degrees Celsius
Experimental: 10 mM compound solution was prepared using DMSO, and then 6 μL of the compound solution was added to 594 μL of artificial intestinal juice in pH 6.8 (to 250 mL of 0.2 mol/L potassium dihydrogen phosphate reagent solution was added 118 mL of 0.2 mol/L NaOH reagent solution and water to provide a final volume of 1000 mL). After standing at 25 degrees Celsius for 16 hours, the mixed solution was filtrated with suction. The filtrate was diluted twice with methanol/water (1/1), and then a concentration in the filtration was measured with HPLC or LC/MS/MS by the absolute calibration method.

PI-3 kinase γ [3] = target: T3, PI-3 kinase γ; assay: PI3Kγ inhibitory activity (Ki value), HTRF assay; type: biochemical; details: calculated from IC50, test ATP 10 μM
Experimental: The PI3Kγ inhibitory activity (Ki value) of a compound was evaluated according to the following procedure.
5 μL of a compound solution comprising 10% DMSO and 200 μM of a compound was changed to 5 μL of a compound solution comprising 10% DMSO and 200, 64, 20, 6.4, 2, 0.64, or 0.20 μM of the compound (optionally, this is diluted to a lower concentration). By a method similar to the method for measuring PI3Kγ inhibitory activity, inhibition ratios were measured in the presence of the compound of 50, 16, 5, 1.6, 0.5, 0.16, and 0.05 μM (optionally, a lower concentration), and then an IC50 value was calculated by a logistic approximation method, or the linear regression method using two concentrations that across 50% inhibition. Separately, 5 μL of 40 μM ATP/10 mM MgCl2/5 mM DTT at the time of the start of a reaction in the absence of a compound was changed to 5 μL of 80, 40, 20, 10, 5, 2.5, 1.25, or 0.625 μM ATP/10 mM MgCl2/5 mM DTT, and then ratios of HTRF was measured by a similar method. The value of subtracting an HTRF ratio at each ATP concentration from an HTRF ratio in the absence of PI-3 kinase γ was defined as a value of multiplying reaction rate v by a constant to calculate the Michaelis-Menten constant Km by the Lineweaver-Burk plot method. A Ki value of a compound was calculated by the following formula.

[4] = Metabolic stability test, pooled human liver microsome; type: in vitro ADME; details: human liver microsome 0.5 mg protein/mL, NADPH, 37 degrees Celsius, 30 minutes
Experimental: After a subject compound was reacted for a certain time using a pooled human liver microsome commercially available, a reacted sample and an unreacted sample are compared to calculate a survival ratio, and then the degree of metabolism in the liver was evaluated.
0.2 mL of a buffer solution (50 mmol/L of Tris-HCl in pH 7.4, 150 mmol/L of potassium chloride, and 10 mmol/L of magnesium chloride) containing a human liver microsome of 0.5 mg protein/mL was reacted in the presence of 1 mmol/L NADPH at 37 degrees Celsius for 0 or 30 minutes (oxidative reaction). After reacting, 50 μL of the reaction solution was added to 100 μL of a solution of methanol/acetonitrile (1/1(v/v)), mixed, and then centrifuged at 3000 rpm for 15 minutes. A test compound in the supernatant was quantitated with LC/MS/MS. An amount of the compound remained at a reaction time of 0 minute was defined as 100%, and, based on that, an amount of the test compound remained after the reaction was calculated.

T1 sequence (P10635 whole entry): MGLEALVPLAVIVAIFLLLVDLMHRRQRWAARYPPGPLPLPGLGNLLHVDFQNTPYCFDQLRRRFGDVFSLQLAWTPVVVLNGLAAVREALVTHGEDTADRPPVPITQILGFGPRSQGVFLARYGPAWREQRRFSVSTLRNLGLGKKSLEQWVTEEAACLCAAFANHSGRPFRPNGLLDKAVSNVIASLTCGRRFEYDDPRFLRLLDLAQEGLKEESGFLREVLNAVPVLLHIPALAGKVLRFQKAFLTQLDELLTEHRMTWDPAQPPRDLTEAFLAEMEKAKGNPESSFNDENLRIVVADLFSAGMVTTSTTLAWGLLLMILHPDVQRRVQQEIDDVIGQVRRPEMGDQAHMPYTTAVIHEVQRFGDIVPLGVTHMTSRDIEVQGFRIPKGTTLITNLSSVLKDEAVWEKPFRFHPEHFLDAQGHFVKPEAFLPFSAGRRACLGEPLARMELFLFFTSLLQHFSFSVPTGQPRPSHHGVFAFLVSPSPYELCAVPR
T4 sequence (P08684 whole entry): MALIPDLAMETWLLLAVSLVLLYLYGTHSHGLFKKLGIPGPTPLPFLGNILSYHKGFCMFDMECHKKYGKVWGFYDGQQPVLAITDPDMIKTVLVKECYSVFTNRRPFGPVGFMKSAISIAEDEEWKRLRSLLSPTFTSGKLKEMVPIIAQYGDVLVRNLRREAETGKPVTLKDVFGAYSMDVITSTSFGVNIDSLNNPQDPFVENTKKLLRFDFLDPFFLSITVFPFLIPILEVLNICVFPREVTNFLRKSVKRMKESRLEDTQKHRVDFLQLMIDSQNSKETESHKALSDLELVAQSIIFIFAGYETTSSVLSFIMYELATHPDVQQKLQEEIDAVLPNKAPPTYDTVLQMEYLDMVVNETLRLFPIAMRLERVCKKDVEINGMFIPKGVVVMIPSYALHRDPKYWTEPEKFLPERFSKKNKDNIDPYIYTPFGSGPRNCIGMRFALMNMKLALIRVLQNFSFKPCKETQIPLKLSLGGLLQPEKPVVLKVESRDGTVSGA
T6 sequence (P33261 whole entry): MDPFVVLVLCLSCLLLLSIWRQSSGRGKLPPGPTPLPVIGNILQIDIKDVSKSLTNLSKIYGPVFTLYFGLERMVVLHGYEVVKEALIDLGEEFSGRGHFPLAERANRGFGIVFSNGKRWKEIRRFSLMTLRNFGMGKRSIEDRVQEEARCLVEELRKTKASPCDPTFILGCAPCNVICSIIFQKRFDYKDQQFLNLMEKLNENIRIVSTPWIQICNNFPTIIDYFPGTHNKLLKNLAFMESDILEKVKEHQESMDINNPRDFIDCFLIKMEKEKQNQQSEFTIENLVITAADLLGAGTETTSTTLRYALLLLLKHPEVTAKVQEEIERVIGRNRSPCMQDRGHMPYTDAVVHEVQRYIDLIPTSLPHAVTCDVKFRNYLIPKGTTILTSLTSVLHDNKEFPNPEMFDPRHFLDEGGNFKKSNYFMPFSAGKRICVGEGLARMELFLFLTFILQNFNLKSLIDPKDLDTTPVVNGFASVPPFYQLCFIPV
T2 sequence (P11712 whole entry): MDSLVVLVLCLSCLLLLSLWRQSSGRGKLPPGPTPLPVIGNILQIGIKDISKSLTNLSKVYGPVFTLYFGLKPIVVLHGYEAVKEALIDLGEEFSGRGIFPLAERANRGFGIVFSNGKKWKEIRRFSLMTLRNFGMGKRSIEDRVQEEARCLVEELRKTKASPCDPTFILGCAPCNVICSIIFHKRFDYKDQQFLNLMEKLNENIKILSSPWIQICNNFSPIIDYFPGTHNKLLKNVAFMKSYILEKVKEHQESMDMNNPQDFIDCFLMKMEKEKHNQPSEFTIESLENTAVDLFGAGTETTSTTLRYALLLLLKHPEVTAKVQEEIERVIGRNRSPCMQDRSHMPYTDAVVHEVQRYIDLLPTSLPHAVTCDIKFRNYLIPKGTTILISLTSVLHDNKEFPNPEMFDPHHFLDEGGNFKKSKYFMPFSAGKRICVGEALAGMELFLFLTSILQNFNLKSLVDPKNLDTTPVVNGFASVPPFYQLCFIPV
T3 sequence (P48736 whole entry, the tested form may be a part): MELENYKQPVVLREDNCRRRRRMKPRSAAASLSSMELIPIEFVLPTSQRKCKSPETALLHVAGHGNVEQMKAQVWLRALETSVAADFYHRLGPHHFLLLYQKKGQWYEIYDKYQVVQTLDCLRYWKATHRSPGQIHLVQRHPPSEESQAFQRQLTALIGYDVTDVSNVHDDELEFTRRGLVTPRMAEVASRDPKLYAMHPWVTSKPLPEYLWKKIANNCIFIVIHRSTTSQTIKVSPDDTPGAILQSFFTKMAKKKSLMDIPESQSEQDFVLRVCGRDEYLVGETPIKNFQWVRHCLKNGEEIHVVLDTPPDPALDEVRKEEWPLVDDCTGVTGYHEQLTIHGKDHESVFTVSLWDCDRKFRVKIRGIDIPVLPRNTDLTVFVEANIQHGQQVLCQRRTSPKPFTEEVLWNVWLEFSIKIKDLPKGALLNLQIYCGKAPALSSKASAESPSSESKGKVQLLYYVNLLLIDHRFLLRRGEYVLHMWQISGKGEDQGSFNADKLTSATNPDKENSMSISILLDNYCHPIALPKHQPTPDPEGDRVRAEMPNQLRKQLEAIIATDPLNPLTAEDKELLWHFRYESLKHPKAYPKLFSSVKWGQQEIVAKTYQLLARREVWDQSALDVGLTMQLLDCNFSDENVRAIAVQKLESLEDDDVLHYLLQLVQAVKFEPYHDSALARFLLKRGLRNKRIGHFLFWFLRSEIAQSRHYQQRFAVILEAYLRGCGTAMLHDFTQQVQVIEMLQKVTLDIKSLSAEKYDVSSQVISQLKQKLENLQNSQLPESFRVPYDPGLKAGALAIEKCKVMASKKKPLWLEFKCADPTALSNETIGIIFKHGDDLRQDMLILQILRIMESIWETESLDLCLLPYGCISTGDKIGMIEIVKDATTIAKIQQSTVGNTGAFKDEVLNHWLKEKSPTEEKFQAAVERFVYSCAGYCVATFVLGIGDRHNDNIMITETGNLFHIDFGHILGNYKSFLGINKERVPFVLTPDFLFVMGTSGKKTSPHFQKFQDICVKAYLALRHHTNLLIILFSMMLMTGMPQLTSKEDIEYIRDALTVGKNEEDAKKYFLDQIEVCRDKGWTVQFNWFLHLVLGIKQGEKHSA

COc1cccc(-c2ccc3nc(NC(=O)NCc4cc(=O)[nH]o4)cn3n2)c1 [Compound I-267]
pIC50 (CYP2D6): < 4.70
pIC50 (CYP2C9): < 4.70
inhibition at 50 µM (PI-3 kinase γ [1]): 61%
pIC50 (CYP3A4): < 4.70
pIC50 (CYP1A2): < 4.70
pIC50 (CYP2C19): < 4.70

COc1cccc(-c2ccc3nc(NC(=O)NO)cn3n2)c1 [Compound I-274]
AKT phosphorylation inhibition ratio [2]: 82.6%
inhibition at 50 µM (PI-3 kinase γ [1]): 88%

COc1cccc(-c2ccc3nc(NC(=O)NCC(=O)O)cn3n2)c1 [Compound I-120]
inhibition at 50 µM (PI-3 kinase γ [1]): 85%
solubility at 16 h (Solubility test): > 50 µM
pKi (PI-3 kinase γ [3]): 7.34

COc1cccc(-c2ccc3nc(NC(=O)NCc4nn[nH]n4)cn3n2)c1 [Compound I-292]
pIC50 (CYP2D6): < 4.70
pIC50 (CYP2C9): < 4.70
inhibition at 50 µM (PI-3 kinase γ [1]): 74%
pIC50 (CYP3A4): < 4.70
solubility at 16 h (Solubility test): > 50 µM
pIC50 (CYP1A2): < 4.70
pIC50 (CYP2C19): < 4.70

COc1cccc(-c2ccc3nc(NC(=O)NCCCS(=O)(=O)c4ccccc4)cn3n2)c1 [Compound I-266]
AKT phosphorylation inhibition ratio [2]: 90.1%

CCNC(=O)Nc1cn2nc(-c3cccc(OC)c3)ccc2n1 [Compound I-119]
AKT phosphorylation inhibition ratio [2]: 92.9%
inhibition at 50 µM (PI-3 kinase γ [1]): 96%

CNC(=O)Nc1cn2nc(-c3cccnc3)ccc2n1 [Compound I-37]
AKT phosphorylation inhibition ratio [2]: 86.7%
inhibition at 50 µM (PI-3 kinase γ [1]): 86%
solubility at 16 h (Solubility test): > 50 µM
Amount of the test compound remained after the reaction [4]: 96.8%

COc1cncc(-c2ccc3nc(NC(=O)NCC(=O)O)cn3n2)c1 [Compound I-224]
pIC50 (CYP2D6): < 4.70
pIC50 (CYP2C9): < 4.70
inhibition at 50 µM (PI-3 kinase γ [1]): 89%
pIC50 (CYP3A4): < 4.70
solubility at 16 h (Solubility test): > 50 µM
pKi (PI-3 kinase γ [3]): 7.13
pIC50 (CYP1A2): < 4.70
pIC50 (CYP2C19): < 4.70

CNC(=O)Nc1cn2nc(-c3cncc(OC)c3)ccc2n1 [Compound I-144]
inhibition at 50 µM (PI-3 kinase γ [1]): 83%
solubility at 16 h (Solubility test): > 50 µM
pKi (PI-3 kinase γ [3]): 7.28

COc1cccc(-c2ccc3nc(NC(=O)NCCC(=O)O)cn3n2)c1 [Compound I-260]
pIC50 (CYP2D6): < 4.70
pIC50 (CYP2C9): < 4.70
inhibition at 50 µM (PI-3 kinase γ [1]): 73%
pIC50 (CYP3A4): < 4.70
pIC50 (CYP1A2): < 4.70
pIC50 (CYP2C19): < 4.70
